{
  "source": "patent US20250052985A1",
  "about": "“SYSTEM AND METHOD FOR QUANTITATIVE PHASE IMAGING FOR MULTI-PARAMETRIC SCREENING OF TUMOR THERAPY RESPONSE” (UNIVERSITY OF UTAH RESEARCH FOUNDATION, priority 2023, published 2025)",
  "key": {"BT-474 cells [1]": {"test_system": "BT-474 cells", "assay": "cells", "settings": "for Max Asymptote / Min Asymptote: BT-474, 4-parameter Hill fit of mean SGR vs concentration, one line per replicate; for Hill Slope / log10(EC50): BT-474, Hill fit; for log10(EC50): EC50 in μM per Table 1", "excerpt": "(§1) In some embodiments, breast cancer cell lines are imaged, representing diverse clinical subtypes, summarized in Table 2 below, using a QPI microscope (FIG. 1A) based on differential phase contrast (DPC) microscopy and phase reconstruction via a QPI microscope system. DPC is used for image acquisition and phase reconstruction because DPC's flexible design may be customized for high throughput phase measurements. […] As illustrated in the embodiment of FIG. 1A, a QPI microscope system 100 conducts assays in a 96-well plate (e.g., a well-plate 105) with 6-point dose response curves and up to five therapies in triplicate including solvent controls, summarized in Table 4 below. As described below, in reference to FIG. 1A, a growth response of cells is measured noninvasively using QPI via a QPI microscope system 110 before being assayed using a CTG reader 115.\n(§2) FIG. 1B illustrates a timeline plot 200 showing two plates (e.g., two, separate well-plates 105) set up in parallel to measure cell viability. With reference to FIG. 1B, two plates are set-up simultaneously for each experiment. A first plate 205 is incubated for 27 hours (h) post drug exposure prior to CTG analysis (3 h equilibration+24 h of imaging), which measures cell adenosine triphosphate (ATP) content as a surrogate for cell viability. A second plate 210 is imaged for 72 h after 3 h equilibration (e.g., 75 h) and followed by CTG. […] The imaging locations are imaged for 72 h, as shown by images 1700-1715 of FIG. 7.\n(§3) In some embodiments, a dose-dependent change in growth, as indicated by a change in the rate of mass accumulation or loss, is a parameter that can be extracted from QPI dose-response data. […] Individual specific growth rate measurements are indicated by points in the distribution of the graph 1200 of FIG. 2A. Blue is indicative of the DMSO control and red is indicative of doxorubicin. The black outline is a kernel density function fit to the distribution of specific growth rates for each condition (e.g., *p<0.05, **p<0.01). In some embodiments, the average SGR of each condition is fit to a sigmoid dose-response curve using a Hill equation. For example, computed logistic fit parameters using a 4-parameter Hill model via the QPI microscope system 110 for all conditions are summarized in Tables 5-8 below. To determine if there is a response, as illustrated by FIG. 2B, the QPI microscope system 110 tests goodness of fit, adjusts for degrees of freedom using an F-test at significance p<0.01 by comparison to a flat line, as an indicator of no response. For cases with a better fit to the Hill equation, the 4-parameter Hill curve may be used by the QPI microscope system 110 to determine the EC50, a measure of sensitivity to therapy because it represents the effective concentration at which 50% of the cells respond to therapy, as illustrated by FIG. 10. […] A 4-parameter Hill curve is fit to each dose response plot to extract the depth of response and EC50 for each cell/drug pair. A flat line represents no response due to failure of the F-test to reject the null hypothesis that the logistic fit is indistinguishable from a flat line. […] Each color indicates a different drug or therapy used."}, "MCF-7 cells [2]": {"test_system": "MCF-7 cells", "assay": "cells", "excerpt": "as §1, §2, §3"}, "BT-474 cells [3]": {"test_system": "BT-474 cells", "assay": "CellTiter-Glo (CTG) ATP viability assay, BT-474", "type": "cell-based", "settings": "for Hill Slope / log10(EC50): BT-474, Hill fit; for Min Asymptote: BT-474, Hill fit of luminescence normalized to solvent control, one line per replicate", "experimental": "(§4) CTG (e.g., read by the CTG reader 115) is a cell viability assay that quantifies the amount of ATP present at the end of an experiment as an indicator of the number of live cells. The electronic controller 155 measures ATP content in each condition as a readout by a luminescent signal, which is normalized by the luminescence of the control (e.g., a control well) to determine cell viability relative to on-plate controls. In some embodiments, the CTG assay is performed by first removing 100 μL of media from each well on the well-plate 105, which is then replaced with an equal amount of CellTiter-Glo reagent (e.g., Promega, G7572). Assayed plates may be shaken at 500 RPM for 20 minutes and allowed to rest for 10 minutes. In some instances, 100 μL of volume from each well is transferred to a white 96-well plate (e.g., Perkin Elmer, 6005680). The electronic controller 155 collects luminescence data from each well using an Envision plate reader (e.g., Perkin Elmer) and normalized against the solvent control to measure ATP content. The electronic controller 155 fits a 4-parameter hill curve to the dose response to determine the EC50 and depth of response."}, "MCF-7 cells [4]": {"test_system": "MCF-7 cells", "assay": "CellTiter-Glo (CTG) ATP viability assay, MCF-7", "type": "cell-based", "settings": "for Min Asymptote: MCF-7, Hill fit of luminescence normalized to solvent control, one line per replicate", "experimental": "as §4"}, "MDA-MB-231 cells": {"test_system": "MDA-MB-231 cells", "assay": "CellTiter-Glo (CTG) ATP viability assay, MDA-MB-231", "type": "cell-based", "settings": "for Min Asymptote: MDA-MB-231, Hill fit of luminescence normalized to solvent control, one line per replicate", "experimental": "as §4"}},
  "note": "“And” between values parts separate entries of the source, which are not always exact repeats. Identical values can stand only once.",
  "data": [
    {"compound": "CCC(=C(c1ccc(O)cc1)c1ccc(OCCN(C)C)cc1)c1ccccc1", "note": "[4HT, 4-hydroxy-Tamoxifen]", "values": [
      {"measurement": "Max Asymptote", "setting": "BT-474 cells [1]; 24 h QPI", "result": "0.01232 and 0.00969 and 0.009107"},
      {"measurement": "Min Asymptote", "setting": "BT-474 cells [1]; 24 h QPI", "result": "−0.01613 and −0.02375 and −0.02493"},
      {"measurement": "Hill Slope", "setting": "BT-474 cells [1]; 24 h QPI", "result": "2.303 and 3.2307 and 3.3723"},
      {"measurement": "log10(EC50)", "setting": "BT-474 cells [1]; 24 h QPI", "result": "−1.1593 and −1.2498 and −1.2667"},
      {"measurement": "Max Asymptote", "setting": "BT-474 cells [1]; 72 h QPI", "result": "−0.01224 and −0.01212 and −0.01166"},
      {"measurement": "Min Asymptote", "setting": "BT-474 cells [1]; 72 h QPI", "result": "0.009052 and 0.007511 and 0.008099"},
      {"measurement": "Hill Slope", "setting": "BT-474 cells [1]; 72 h QPI", "result": "3.3746 and 3.7567 and 4.6177"},
      {"measurement": "log10(EC50)", "setting": "BT-474 cells [1]; 72 h QPI", "result": "−1.2566 and −1.2595 and −1.2511"},
      {"measurement": "response of growth rate and heterogeneity to treatment", "setting": "BT-474 cells [1]; BT-474, FIG. 5E, 22, 23", "result": "both reduced growth rate and slightly increased heterogeneity"},
      {"measurement": "growth rate and heterogeneity as concentration increases", "setting": "BT-474 cells [1]; BT-474, FIG. 22", "result": "decrease in growth rate at approximately constant standard deviation"},
      {"measurement": "growth rate and heterogeneity over time", "setting": "BT-474 cells [1]; BT-474, FIG. 23 Graph F", "result": "first experiencing reduced growth rate, and then a large spike in heterogeneity"},
      {"measurement": "DoR QPI", "setting": "BT-474 cells [1]; BT-474 cell line, depth of response, QPI", "result": 2.5},
      {"measurement": "ToR 20 μM", "setting": "BT-474 cells [1]; BT-474 cell line, time of response at 20 μM", "result": "−0.9815"},
      {"measurement": "EC50", "setting": "BT-474 cells [1]; read-out: EC50, QPI, BT-474 cell line, QPI growth rate", "result": 18, "unit": "µM"},
      {"measurement": "Max Asymptote", "setting": "MCF-7 cells [2]; 24 h QPI, MCF-7, 4-parameter Hill fit of mean SGR vs concentration, one line per replicate", "result": "0.02753 and 0.02505 (2×)"},
      {"measurement": "log10(EC50)", "setting": "MCF-7 cells [2]; 24 h QPI, MCF-7, Hill fit, EC50 in μM per Table 1", "result": "−1.3545"},
      {"measurement": "Min Asymptote", "setting": "MCF-7 cells [2]; 72 h QPI, MCF-7, 4-parameter Hill fit of mean SGR vs concentration, one line per replicate", "result": "0.02137 and 0.02094 and 0.02499"},
      {"measurement": "DoR QPI", "setting": "MCF-7 cells [2]; MCF-7 cell line, depth of response, QPI", "result": 2.1},
      {"measurement": "ToR 20 μM", "setting": "MCF-7 cells [2]; MCF-7 cell line, time of response at 20 μM", "result": "−1.3078"},
      {"measurement": "EC50", "setting": "MCF-7 cells [2]; read-out: EC50, QPI, MCF-7 cell line, QPI growth rate", "result": 75.2, "unit": "µM"},
      {"measurement": "Hill Slope", "setting": "BT-474 cells [3]; 24 h CTG", "result": 4.596},
      {"measurement": "log10(EC50)", "setting": "BT-474 cells [3]; 24 h CTG", "result": "−0.736"},
      {"measurement": "Min Asymptote", "setting": "BT-474 cells [3]; 24 h CTG", "result": 0.07942},
      {"measurement": "Hill Slope", "setting": "BT-474 cells [3]; 72 h CTG", "result": "3.312 and 3.655"},
      {"measurement": "log10(EC50)", "setting": "BT-474 cells [3]; 72 h CTG", "result": "−0.6116 and −0.6471"},
      {"measurement": "Min Asymptote", "setting": "BT-474 cells [3]; 72 h CTG", "result": "1.76E−08 (2×) and 8.28E−08"},
      {"measurement": "EC50", "setting": "BT-474 cells [3]; BT-474 cell line, CellTiter-Glo, read-out: EC50, CTG", "result": 4.2, "unit": "µM"},
      {"measurement": "DoR CTG", "setting": "BT-474 cells [3]; BT-474 cell line, depth of response, CellTiter-Glo", "result": 1.0},
      {"measurement": "Min Asymptote", "setting": "MCF-7 cells [4]; 24 h CTG", "result": "7.96E−12 and 5.22E−09"},
      {"measurement": "log10(EC50)", "setting": "MCF-7 cells [4]; 72 h CTG, MCF-7, Hill fit", "result": "−0.5373 and −0.5549 and −0.6776"},
      {"measurement": "Min Asymptote", "setting": "MCF-7 cells [4]; 72 h CTG", "result": "2.23E−14 and 2.22E−14 and 3.01E−12"},
      {"measurement": "EC50", "setting": "MCF-7 cells [4]; MCF-7 cell line, CellTiter-Glo, read-out: EC50, CTG (converted)", "result": 3.9, "unit": "µM"},
      {"measurement": "DoR CTG", "setting": "MCF-7 cells [4]; MCF-7 cell line, depth of response, CellTiter-Glo", "result": 1.0},
      {"measurement": "Hill Slope", "setting": "MDA-MB-231 cells; 24 h CTG, MDA-MB-231, Hill fit", "result": 5.351},
      {"measurement": "log10(EC50)", "setting": "MDA-MB-231 cells; 24 h CTG, MDA-MB-231, Hill fit", "result": "−0.5158"},
      {"measurement": "Min Asymptote", "setting": "MDA-MB-231 cells; 24 h CTG", "result": 0.393},
      {"measurement": "log10(EC50)", "setting": "MDA-MB-231 cells; 72 h CTG, MDA-MB-231, Hill fit", "result": "−0.9458"},
      {"measurement": "Min Asymptote", "setting": "MDA-MB-231 cells; 72 h CTG", "result": "0.003315 and 0.01516 (2×)"},
      {"measurement": "EC50", "setting": "MDA-MB-231 cells; MDA-MB-231 cell line, CellTiter-Glo, read-out: EC50, CTG", "result": 6.9, "unit": "µM"},
      {"measurement": "DoR CTG", "setting": "MDA-MB-231 cells; MDA-MB-231 cell line, depth of response, CellTiter-Glo", "result": 1.0}
    ]}
  ]
}
